Reference: US12377083B2 (WUHAN LL SCIENCE AND TECHNOLOGY DEVELOPMENT CO., LTD., priority 2019, dated 2025)
Read-outs that look alike come from different tables or passages of the source. One block for each compound: values may come before it.

Key:
[1] = molecular target: hLPAR1 (human lysophosphatidic acid receptor 1) (Homo sapiens, UniProt Q92633); test: FLIPR assay of intracellular calcium increase induced by activation of hLPAR1 expressed in CHO-K1 cells; type: cell-based; conditions: CHO-K1 cells expressing hLPAR1, agonist oleoyl-L-α-lysophosphatidic acid 1 μM
Description: The antagonist property of the compounds disclosed herein was determined using the FLIPR (fluorescence imaging plate reader) method, wherein the compounds are inhibitors for the intracellular calcium increase induced by activation of hLPAR1 (human lysophosphatidic acid receptor 1, accession No. NM_001401.4) expressed in CHO-K1 cells (Chinese hamster ovary cells K1, ATCC).
Cells at 250,000 cells/mL were seeded into a 96-well plate (25,000 cells/well) 18-24 h prior to the FLIPR experiment and then incubated overnight in a cell incubator. […] Each well was added with 75 μL of […] Fluo-4 AM fluorescent dye (Thermo, F14202) and then the cells were subjected to dye-loading incubation at 37° C. for 1.0 h. The 96-well plate was then washed once with buffer, added with a buffer containing a test compound or a vehicle at 50 μL per well and then incubated for 30 min at room temperature. […] An agonist (oleoyl-L-α-lysophosphatidic acid sodium salt (Sigma, L7260)) at a final concentration of 1 μM or a vehicle (ultrapure water) was then added at 50 μL/well, fluorescence values were measured for 2 min at 1-second intervals, and finally the output fluorescence counts were analyzed.

[2] = system: A2058 (human melanoma cells); test: A2058 cell scratch (migration) assay with LPA; type: cell-based; conditions: 10 μM LPA, scratch area at 24 h
Description: The activity of the compounds disclosed herein at the cell level in vitro is evaluated by A2058 (human melanoma cells, Beina Bio, BNCC341099) cell scratch assay. The inhibitory activity of the compounds against LPAR1 can be reflected by inhibition of cell scratch healing.
After the cell confluence reached 80%, the cell culture plate was taken out and the original medium was discarded. Serum-free medium was then added, and the cells were starved overnight in an incubator (37° C., 5% CO2). The cell culture plate was then taken out, and cell scratches were made along the diameter of the wells using a 200 μL pipette tip. The cell culture plate was then added with 500 μL of serum-free medium and then shaken gently to wash away the residual cells on the scratched surface, and this was repeated twice. The medium was discarded and 500 μL of 1% FBS medium containing the compound was then added, and the mixture was incubated at 37° C. for 30 min. […] Olympus CKX53 was used to observe the scratches, and MShot image analysis system was used to take pictures and measure the scratch area at 0 h. The plate was incubated in the incubator under the conditions of 37° C. and 5% CO2. 24 h later, the scratches were observed again with Olympus CKX53, and MShot image analysis system was used to take pictures and measure the scratch area at 24 h. Cell migration inhibition rate was calculated according to the following formula: […]

hLPAR1 (human lysophosphatidic acid receptor 1), sequence (Q92633 whole entry): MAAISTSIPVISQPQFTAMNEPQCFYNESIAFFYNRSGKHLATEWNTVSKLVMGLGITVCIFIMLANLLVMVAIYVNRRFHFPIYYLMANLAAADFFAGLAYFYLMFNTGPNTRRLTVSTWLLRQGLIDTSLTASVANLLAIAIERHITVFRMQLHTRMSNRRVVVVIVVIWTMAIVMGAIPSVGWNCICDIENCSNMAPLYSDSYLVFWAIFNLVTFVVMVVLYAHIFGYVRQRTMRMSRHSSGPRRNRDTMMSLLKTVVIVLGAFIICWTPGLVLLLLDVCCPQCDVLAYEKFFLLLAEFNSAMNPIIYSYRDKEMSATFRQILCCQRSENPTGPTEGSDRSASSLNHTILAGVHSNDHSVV

SMILES: Cc1ccn(-c2ccc(O[C@H]3CCC[C@H](C(=O)O)C3)cc2)c1N(C)C(=O)OC1CCCC1 (racemic) [Compound 71]
IC50 ([1]; read-out: LPAR1 IC50): 0.3 to 10 µM

SMILES: CN(C(=O)OCc1c(-c2ccc(O[C@H]3CCC[C@H](C(=O)O)C3)c(C#N)n2)cnn1C)C1CCC1 (racemic) [Compound 112, (+/−)-(1S,3S)-3-((2-cyano-6-(5-(((cyclobutyl(methyl)carbamoyl)oxy)methyl)-1-methyl-1H-pyrazol-4-yl)pyridin-3-yl)oxy)cyclohexane-1-carboxylic Acid]
IC50 ([1]; read-out: LPAR1 IC50): 0.05 to 0.3 µM | Cell migration inhibition rate (%) [2]: B (B: 30-50%)

SMILES: Cc1cnn(-c2ccc(O[C@H]3CCC[C@H](C(=O)O)C3)cc2)c1N(C)C(=O)OC1CCCC1 (racemic) [Compound 70]
IC50 ([1]; read-out: LPAR1 IC50): 0.3 to 10 µM

SMILES: CN(C(=O)OCc1c(-c2ccc(O[C@H]3CCC[C@H](C(=O)O)C3)c(CO)n2)cnn1C)C1CCC1 (racemic) [Compound 116, (+/−)-(1S,3S)-3-((6-(5-(((cyclobutyl(methyl)carbamoyl)oxy)methyl)-1-methyl-1H-pyrazol-4-yl)-2-(hydroxymethyl)pyridin-3-yl)oxy)cyclohexane-1-carboxylic Acid]
IC50 ([1]; read-out: LPAR1 IC50): 0.3 to 10 µM | Cell migration inhibition rate (%) [2]: B (B: 30-50%)

SMILES: Cc1snc(-c2ccc(O[C@H]3CCC[C@H](C(=O)O)C3)c(C(F)(F)F)n2)c1COC(=O)N(C)C1CCCC1 [Compound 82]
IC50 ([1]; read-out: LPAR1 IC50): < 0.05 µM

SMILES: CN(C(=O)OCc1c(-c2ccc(C3CCC[C@H](C(=O)O)C3)cc2)cnn1C)C1CCCC1 (mixture of isomers) [Compound 73]
IC50 ([1]; read-out: LPAR1 IC50): 0.3 to 10 µM

SMILES: CN(C(=O)OCc1c(-c2ccc(O[C@H]3CCC[C@H](C(=O)O)C3)c(OCCO)n2)cnn1C)C1CCC1 (racemic) [Compound 111]
IC50 ([1]; read-out: LPAR1 IC50): 0.3 to 10 µM

SMILES: CN(C(=O)OCc1cnncc1-c1ccc(O[C@H]2CCC[C@H](C(=O)O)C2)cc1)C1CCCC1 (racemic) [Compound 74]
IC50 ([1]; read-out: LPAR1 IC50): 0.3 to 10 µM

SMILES: CN(Cc1ccccc1)C(=O)OCc1oncc1-c1ccc(O[C@H]2CCC[C@H](C(=O)O)C2)cc1 (racemic) [Compound 68]
IC50 ([1]; read-out: LPAR1 IC50): 0.3 to 10 µM

SMILES: CN(C(=O)OCc1c(-c2ccc(O[C@H]3CCC[C@H](C(=O)O)C3)c(N3CC(O)C3)n2)cnn1C)C1CCC1 (racemic) [Compound 107]
IC50 ([1]; read-out: LPAR1 IC50): 0.3 to 10 µM

SMILES: CN(CC1CCCC1)C(=O)OCc1c(-c2ccc(O[C@H]3CCC[C@H](C(=O)O)C3)c(F)n2)cnn1C (racemic) [Compound 77]
IC50 ([1]; read-out: LPAR1 IC50): < 0.05 µM

SMILES: CN(CC1CCCC1)C(=O)OCc1c(-c2ccc(O[C@H]3CCC[C@H](C(=O)O)C3)c(C#N)n2)cnn1C [Compound 78]
IC50 ([1]; read-out: LPAR1 IC50): 0.05 to 0.3 µM

SMILES: Cc1nc(-c2c(C(F)(F)F)nn(C)c2COC(=O)N(C)C2CCCC2)ccc1O[C@H]1CCC[C@H](C(=O)O)C1 (racemic) [Compound 85]
IC50 ([1]; read-out: LPAR1 IC50): 0.05 to 0.3 µM

SMILES: CN(C(=O)OCc1cnccc1-c1ccc(O[C@H]2CCC[C@H](C(=O)O)C2)cc1)C1CCCC1 [Compound 75]
IC50 ([1]; LPAR1 IC50 (μM)): 0.3 to 10 µM

SMILES: CN(C(=O)OCc1oncc1-c1ccc(O[C@H]2CCC[C@H](C(=O)O)C2)cc1)C1CCCC1 (racemic) [Compound 72]
IC50 ([1]; read-out: LPAR1 IC50): 0.3 to 10 µM

SMILES: Cc1noc(-c2ccc(O[C@H]3CCC[C@H](C(=O)O)C3)cc2)c1OC(=O)N(C)C1CCCC1 (racemic) [Compound 69]
IC50 ([1]; LPAR1 IC50 (μM)): 0.3 to 10 µM

SMILES: Cc1nc(-c2cnn(C)c2COC(=O)N2CC3CCC2CO3)ccc1O[C@H]1CCC[C@H](C(=O)O)C1 (mixture of isomers) [Compound 96]
IC50 ([1]; read-out: LPAR1 IC50): 0.3 to 10 µM

SMILES: CN(C(=O)OCc1cncnc1-c1ccc(O[C@H]2CCC[C@H](C(=O)O)C2)cc1)C1CCCC1 (racemic) [Compound 76]
IC50 ([1]; read-out: LPAR1 IC50): 0.3 to 10 µM

Further lines, with some results ahead:

IC50 ([1]; read-out: LPAR1 IC50): 0.3 to 10 µM
SMILES: Cc1noc(-c2ccc(O[C@H]3CCC[C@H](C(=O)O)C3)cn2)c1COC(=O)N(C)C1CC1 (racemic) [Compound 106]
Cell migration inhibition rate (%) [2]: B (B: 30-50%)

IC50 ([1]; read-out: LPAR1 IC50): < 0.05 µM
SMILES: Cc1nc(-c2onc(C)c2COC(=O)N(C)C2CCCC2)cnc1O[C@H]1CCC[C@H](C(=O)O)C1 (racemic) [Compound 90]

IC50 ([1]; read-out: LPAR1 IC50): 0.3 to 10 µM
SMILES: Cc1nc(-c2c(COC(=O)N(C)C3CCCC3)n(C)[nH]c2=O)ccc1O[C@H]1CCC[C@H](C(=O)O)C1 (racemic) [Compound 99]

IC50 ([1]; read-out: LPAR1 IC50): 0.3 to 10 µM
SMILES: CN(C(=O)OCc1c(-c2cnc(O[C@H]3CCC[C@H](C(=O)O)C3)c(N)n2)cnn1C)C1CCCC1 (racemic) [Compound 94, (+/−)-(1S,3S)-3-((3-amino-5-(5-(((cyclopentyl(methyl)carbamoyl)oxy)methyl)-1-methyl-1H-pyrazol-4-yl)pyrazin-2-yl)oxy)cyclohexane-1-carboxylic Acid]
Cell migration inhibition rate (%) [2]: C (C: 0-30%)

IC50 ([1]; read-out: LPAR1 IC50): 0.05 to 0.3 µM
SMILES: COc1nn(C)c(COC(=O)N(C)C2CCCC2)c1-c1ccc(O[C@H]2CCC[C@H](C(=O)O)C2)c(C)n1 (racemic) [Compound 88, (+/−)-(1S,3S)-3-((6-(5-(((cyclopentyl(methyl)carbamoyl)oxy)methyl)-3-methoxy-1-methyl-1H-pyrazol-4-yl)-2-methylpyridin-3-yl)oxy)cyclohexane-1-carboxylic Acid]
Cell migration inhibition rate (%) [2]: C (C: 0-30%)

IC50 ([1]; read-out: LPAR1 IC50): < 0.05 µM
SMILES: Cc1onc(-c2cnc(O[C@H]3CCC[C@H](C(=O)O)C3)cn2)c1COC(=O)N(C)C1CCCC1 (racemic) [Compound 102]
Cell migration inhibition rate (%) [2]: A (A: 50-70%)

IC50 ([1]; read-out: LPAR1 IC50): 0.3 to 10 µM
SMILES: CN(C(=O)OCc1c(-c2ccc(O[C@H]3CCC[C@H](C(=O)O)C3)c(O)n2)cnn1C)C1CCCC1 (racemic) [Compound 114, (+/−)-(1S,3S)-3-((6-(5-(((cyclopentyl(methyl)carbamoyl)oxy)methyl)-1-methyl-1H-pyrazol-4-yl)-2-hydroxypyridin-3-yl)oxy)cyclohexane-1-carboxylic Acid]
Cell migration inhibition rate (%) [2]: C (C: 0-30%)

IC50 ([1]; read-out: LPAR1 IC50): < 0.05 µM
SMILES: Cc1onc(-c2ccc(O[C@H]3CCC[C@H](C(=O)O)C3)cn2)c1COC(=O)N(C)C1CCCC1 (racemic) [Compound 79]

IC50 ([1]; read-out: LPAR1 IC50): < 0.05 µM
SMILES: Cc1onc(-c2cnc(O[C@H]3CCC[C@H](C(=O)O)C3)c(F)n2)c1COC(=O)N(C)C1CCCC1 (racemic) [Compound 101]

IC50 ([1]; read-out: LPAR1 IC50): < 0.05 µM
SMILES: Cc1nsc(-c2ccc(O[C@H]3CCC[C@H](C(=O)O)C3)c(C(F)(F)F)n2)c1COC(=O)N(C)C1CCCC1 (racemic) [Compound 84]

IC50 ([1]; read-out: LPAR1 IC50): < 0.05 µM
SMILES: Cc1noc(-c2ccc(O[C@H]3CCC[C@H](C(=O)O)C3)c(F)c2)c1COC(=O)N(C)C1CCCC1 (racemic) [Compound 86]

IC50 ([1]; read-out: LPAR1 IC50): 0.05 to 0.3 µM
SMILES: Cc1nsc(-c2ccc(O[C@H]3CCC[C@H](C(=O)O)C3)cn2)c1COC(=O)N(C)C1CCCC1 (racemic) [Compound 83]

IC50 ([1]; read-out: LPAR1 IC50): 0.05 to 0.3 µM
SMILES: Cc1snc(-c2ccc(O[C@H]3CCC[C@H](C(=O)O)C3)cn2)c1COC(=O)N(C)C1CCCC1 (racemic) [Compound 81]

IC50 ([1]; read-out: LPAR1 IC50): < 0.05 µM
SMILES: Cc1onc(-c2ccc(O[C@H]3CCC[C@H](C(=O)O)C3)c(C(F)(F)F)n2)c1COC(=O)N(C)C1CCCC1 [Compound 80]

IC50 ([1]; read-out: LPAR1 IC50): 0.05 to 0.3 µM
SMILES: Cc1nc(-c2c(N)nn(C)c2COC(=O)N(C)C2CCCC2)ccc1O[C@H]1CCC[C@H](C(=O)O)C1 (racemic) [Compound 87]

IC50 ([1]; read-out: LPAR1 IC50): < 0.05 µM
SMILES: CN(C(=O)OCc1c(-c2cnc(O[C@H]3CCC[C@H](C(=O)O)C3)c(F)n2)cnn1C)C1CCCC1 (racemic) [Compound 103, (+/−)-(1S,3S)-3-((5-(5-(((cyclopentyl(methyl)carbamoyl)oxy)methyl)-1-methyl-1H-pyrazol-4-yl)-3-fluoropyrazin-2-yl)oxy)cyclohexane-1-carboxylic Acid]
